Measured values as given in PubChem BioAssay (NCI).
“And” between values parts separate entries of the source, which are not always exact repeats. Equal entries are not always repeated.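 Assay format: 96-well plates, 48-hour exposure. Here, GI50 denotes the concentration required for 50% inhibition of growth. At the TGI there is no net growth.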

What was measured:
Assay in all cases: NCI anticancer screen, dose series, 48 h
SF-295 CNS = tested on: SF-295 CNS
NCI-H460 lung = tested on: NCI-H460 lung
CAKI-1 renal = tested on: CAKI-1 renal
SK-OV-3 ovarian = tested on: SK-OV-3 ovarian
SNB-19 CNS = tested on: SNB-19 CNS
RPMI-8226 leukemia = tested on: RPMI-8226 leukemia
MOLT-4 leukemia = tested on: MOLT-4 leukemia
SF-539 CNS = tested on: SF-539 CNS

| SMILES | GI50 (SF-295 CNS) [µM] | TGI (SF-295 CNS) | GI50 (NCI-H460 lung) [µM] | TGI (NCI-H460 lung) | GI50 (CAKI-1 renal) [µM] | TGI (CAKI-1 renal) | GI50 (SK-OV-3 ovarian) [µM] | TGI (SK-OV-3 ovarian) | GI50 (SNB-19 CNS) [µM] | TGI (SNB-19 CNS) | GI50 (RPMI-8226 leukemia) [µM] | TGI (RPMI-8226 leukemia) | GI50 (MOLT-4 leukemia) [µM] | TGI (MOLT-4 leukemia) [µM] | GI50 (SF-539 CNS) [µM] | TGI (SF-539 CNS) |
| --- | --- | --- | --- | --- | --- | --- | --- | --- | --- | --- | --- | --- | --- | --- | --- | --- |
| COc1cc(/C=C2\C(=O)Nc3ccc(Br)cc32)cc(OC)c1OC | 12 | 68.9 µM | 8.76 | > 100 µM | 1.85 | > 44.1 µM | 24 | > 56.1 µM | 29.8 | > 100 µM | 1.31 | > 41.8 µM | 8.51 | > 100 | 26.7 | > 100 µM |
| CCn1c(-c2nonc2N)nc2c(C#CC(C)(C)O)ncc(OC[C@@H]3CCCN3)c21 | 3.07 | > 25 µM | 4.51 | > 22.6 µM | > 25 | > 25 µM | 0.968 | > 19 µM | 4.28 | > 25 µM | 24.8 | > 25 µM | 3.01 | > 25 | 1.52 | 15.8 µM |
| COc1ccc(-c2nn(-c3cccc(Cl)c3)cc2-c2cc(-c3cccs3)no2)cc1 | 2.7 | 13.2 µM | 3.42 | 16.6 µM | 2.05 | 6.02 µM | 8.89 | 44.1 µM | 6.09 | > 100 µM | 5.33 | 61.9 µM | 2.96 | 19.5 | 7.47 | 36.6 µM |
| CC(C)(C)OC(=O)n1c(Cl)c(C(=O)N=C=S)c2ccccc21 | 33 | > 100 µM | 39.6 | > 100 µM | 34.6 | 92 µM | > 100 | > 100 µM | 44.4 | > 100 µM | 24.4 | 87.4 µM |  |  | 23 | 55.1 µM |
| COc1ccc(CNC(=O)c2ccc(-c3cc(-c4nnc(C)o4)ccc3C)cc2)cc1 | 7.6 | > 25 µM | > 25 | > 25 µM | 19.5 | > 25 µM | > 25 | > 25 µM | > 22.8 | > 25 µM | 12.6 | > 25 µM | 15.6 | > 25 | > 25 | > 25 µM |
| Cc1cc(C)c2nccc(NCCCN(C)C)c2c1[N+](=O)[O-] |  | > 100 µM |  | > 100 µM |  | > 100 µM |  | > 100 µM |  | > 100 µM |  | > 100 µM |  | > 100 |  | 84.8 µM |
| N=C(N)SCC(=O)O |  | > 100 µM |  | > 100 µM |  | > 100 µM |  | > 100 µM |  | > 100 µM |  | > 100 µM |  | > 100 |  | > 100 µM |
| CCCC(=O)Nc1cn(COC)c(C(=O)N2C[C@H]3C[C@@]34C2=CC(=O)c2[nH]cc(C)c24)n1 | 5 | 50 µM and 67.2 µM |  | 15.9 µM and 28.7 µM | 5.42 | 17.3 µM and > 100 µM | 26.7 | 50 µM and > 100 µM | 10.4 | 50 µM and > 100 µM | 3.21 | 22.8 µM and > 100 µM | 1.6 |  | 1.87 | 37.7 µM and 38.4 µM |
| CC[C@H](C)[C@H](NC(=O)N[C@@H](C)c1ccccc1)C(=O)N(C)[C@H](C[C@@H](OC(C)=O)c1nc(C(=O)N[C@@H](Cc2ccccc2)C[C@H](C)C(=O)OC)cs1)C(C)C | 25.6 | > 100 µM | 26.6 | 95.5 µM | 37.2 | > 100 µM | 42.2 | > 100 µM | 28.6 | > 100 µM | 8.74 | > 100 µM |  |  | 20.2 | 56.6 µM |
| Cc1cc(S(N)(=O)=O)c(S/C(=N\NS(=O)(=O)c2ccccc2)c2ccc(Cl)c(Cl)c2)cc1Cl | 36.4 | > 100 µM | 29.5 | > 100 µM | 36.5 | > 100 µM | > 100 | > 100 µM | 78.8 | > 100 µM | 28.8 | > 100 µM | 30.3 | > 100 | 19.3 | 64.3 µM |
| CC(=O)OC1Oc2cc(C)c(C)cc2-c2oc(=O)c(-c3ccccc3)cc21 (centres undefined) | 0.448 | > 34.9 µM | 0.338 | 14.2 µM | 0.525 | > 54.1 µM | 0.407 | 37.3 µM | 0.496 | 28.7 µM | 0.287 | 0.969 µM | 0.355 |  | 0.232 | 0.762 µM |
| COc1cccc(C2CC(=O)Nc3cc4c(cc32)CCC4)c1OC (centres undefined) | 2.83 | 12.4 µM | 3.16 | 12.3 µM | 3.36 | 56.2 µM | 3.73 | 20 µM | 8.66 | > 100 µM | 2.63 | 14.6 µM | 3.16 | 10.2 | 3.03 | 10.4 µM |
